What follows are compounds tested on recombinant NL4-3 virus (Renilla luciferase in nef, Gag P373S) (assay: HIV Cell Culture Assay (luciferase reporter virus in MT-2 cells)). Settings: NL43, read-out: EC50 Group.
Format: cell-based
Procedure, shortened: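 Virus from 293T transfection, titered in MT-2 by luciferase. MT-2 (RPMI, 10% HI-FBS) infected ± inhibitor serial dilutions, 4-5 d. Readout: Dual Luciferase premix (lysis:reagent:Stop & Glo 2:1:1), immediate luminescence.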

Row | Compound | EC50 [nM]
1 | C=C(C)[C@@H]1CC[C@]2(C(=O)N3CCC(O)CC3)CC[C@]3(C)[C@H](CC[C@@H]4[C@@]5(C)CC=C(c6ccc(C(=O)OC)cc6)C(C)(C)[C@@H]5CC[C@]43C)[C@@H]12 [Example 21, methyl 4-((1R,3aS,5aR,5bR,7aR,11aS,11bR,13aR,13bR)-3a-(4-hydroxypiperidine-1-carbonyl)-5a,5b,8,8,11a-pentamethyl-1-(prop-1-en-2-yl)-2,3,3a,4,5,5a,5b,6,7,7a,8,11,11a,11b,12,13,13a,13b-octadecahydro-1H-cyclopenta[a]chrysen-9-yl)benzoate] | > 100
2 | C[C@H]1[C@H](C)CC[C@]2(C(=O)NCCN(C)C)CC[C@]3(C)C(=CC[C@@H]4[C@@]5(C)CC=C(c6ccc(C(=O)O)cc6)C(C)(C)[C@@H]5CC[C@]43C)[C@H]12 [Example A1, 4-((4aR,6aR,6bS,8aS,11R,12S,12aS,14aR,14bS)-8a-(2-(dimethylamino)ethylcarbamoyl)-4,4,6a,6b,11,12,14b-heptamethyl-1,4,4a,5,6,6a,6b,7,8,8a,9,10,11,12,12a,14,14a,14b-octadecahydropicen-3-yl)benzoic acid] | < 100
3 | C=C(C)[C@@H]1CC[C@]2(C(=O)NCC3CCCN3CC)CC[C@]3(C)[C@H](CC[C@@H]4[C@@]5(C)CC=C(c6ccc(C(=O)O)cc6)C(C)(C)[C@@H]5CC[C@]43C)[C@@H]12 (stereo partly drawn) [Example 39, 4-((1R,3aS,5aR,5bR,7aR,11aS,11bR,13aR,13bR)-3a-((1-ethylpyrrolidin-2-yl)methylcarbamoyl)-5a,5b,8,8,11a-pentamethyl-1-(prop-1-en-2-yl)-2,3,3a,4,5,5a,5b,6,7,7a,8,11,11a,11b,12,13,13a,13b-octadecahydro-1H-cyclopenta[a]chrysen-9-yl)benzoic acid] | < 100
4 | C=C(C)[C@@H]1CC[C@]2(C(=O)NCCCN(CCC(=O)O)CCC(=O)O)CC[C@]3(C)[C@H](CC[C@@H]4[C@@]5(C)CC=C(c6ccc(C(=O)O)cc6)C(C)(C)[C@@H]5CC[C@]43C)[C@@H]12 [Example 100, 3,3′-(3-((1R,3aS,5aR,5bR,7aR,11aS,11bR,13aR,13bR)-9-(4-carboxyphenyl)-5a,5b,8,8,11a-pentamethyl-1-(prop-1-en-2-yl)-2,3,3a,4,5,5a,5b,6,7,7a,8,11,11a,11b,12,13,13a,13b-octadecahydro-1H-cyclopenta[a]chrysene-3a-carboxamido)propylazanediyl)dipropanoic acid] | > 100
5 | C=C(C)[C@@H]1CC[C@]2(C(=O)N[C@H](C(=O)O)c3ccccc3)CC[C@]3(C)[C@H](CC[C@@H]4[C@@]5(C)CC=C(c6ccc(C(=O)O)cc6)C(C)(C)[C@@H]5CC[C@]43C)[C@@H]12 [Example 56, 4-((1R,3aS,5aR,5bR,7aR,11aS,11bR,13aR,13bR)-3a-((S)-carboxy(phenyl)methylcarbamoyl)-5a,5b,8,8,11a-pentamethyl-1-(prop-1-en-2-yl)-2,3,3a,4,5,5a,5b,6,7,7a,8,11,11a,11b,12,13,13a,13b-octadecahydro-1H-cyclopenta[a]chrysen-9-yl)benzoic acid] | < 100
6 | C=C(C)[C@@H]1CC[C@]2(C(=O)NCCNCCC(=O)O)CC[C@]3(C)[C@H](CC[C@@H]4[C@@]5(C)CC=C(c6ccc(C(=O)O)cc6)C(C)(C)[C@@H]5CC[C@]43C)[C@@H]12 [Example 91, 4-((1R,3aS,5aR,5bR,7aR,11aS,11bR,13aR,13bR)-3a-(2-(2-carboxyethylamino)ethylcarbamoyl)-5a,5b,8,8,11a-pentamethyl-1-(prop-1-en-2-yl)-2,3,3a,4,5,5a,5b,6,7,7a,8,11,11a,11b,12,13,13a,13b-octadecahydro-1H-cyclopenta[a]chrysen-9-yl)benzoic acid] | < 100
7 | C=C(C)[C@@H]1CC[C@]2(C(=O)NCCN(CC)CC)CC[C@]3(C)[C@H](CC[C@@H]4[C@@]5(C)CC=C(c6ccc(C(=O)O)cc6)C(C)(C)[C@@H]5CC[C@]43C)[C@@H]12 [Example 70, 4-((1R,3aS,5aR,5bR,7aR,11aS,11bR,13aR,13bR)-3a-(2-(diethylamino)ethylcarbamoyl)-5a,5b,8,8,11a-pentamethyl-1-(prop-1-en-2-yl)-2,3,3a,4,5,5a,5b,6,7,7a,8,11,11a,11b,12,13,13a,13b-octadecahydro-1H-cyclopenta[a]chrysen-9-yl)benzoic acid] | < 100
8 | C=C(C)[C@@H]1CC[C@]2(C(=O)N[C@@H](CC(C)C)C(=O)O)CC[C@]3(C)[C@H](CC[C@@H]4[C@@]5(C)CC=C(c6ccc(C(=O)O)cc6)C(C)(C)[C@@H]5CC[C@]43C)[C@@H]12 [Example 59, 4-((1R,3aS,5aR,5bR,7aR,11aS,11bR,13aR,13bR)-3a-((S)-1-carboxy-3-methylbutylcarbamoyl)-5a,5b,8,8,11a-pentamethyl-1-(prop-1-en-2-yl)-2,3,3a,4,5,5a,5b,6,7,7a,8,11,11a,11b,12,13,13a,13b-octadecahydro-1H-cyclopenta[a]chrysen-9-yl)benzoic acid] | < 100
9 | C=C(C)[C@@H]1CC[C@]2(C(=O)NCC(O)C(=O)O)CC[C@]3(C)[C@H](CC[C@@H]4[C@@]5(C)CC=C(c6ccc(C(=O)O)cc6)C(C)(C)[C@@H]5CC[C@]43C)[C@@H]12 (stereo partly drawn) [Example 79, 4-((1R,3aS,5aR,5bR,7aR,11aS,11bR,13aR,13bR)-3a-(2-carboxy-2-hydroxyethylcarbamoyl)-5a,5b,8,8,11a-pentamethyl-1-(prop-1-en-2-yl)-2,3,3a,4,5,5a,5b,6,7,7a,8,11,11a,11b,12,13,13a,13b-octadecahydro-1H-cyclopenta[a]chrysen-9-yl)benzoic acid] | < 100
10 | C=C(C)[C@@H]1CC[C@]2(C(=O)NCCC(=O)N3CCC(C(=O)O)CC3)CC[C@]3(C)[C@H](CC[C@@H]4[C@@]5(C)CC=C(c6ccc(C(=O)O)cc6)C(C)(C)[C@@H]5CC[C@]43C)[C@@H]12 [Example 49, 1-(3-((1R,3aS,5aR,5bR,7aR,11aS,11bR,13aR,13bR)-9-(4-carboxyphenyl)-5a,5b,8,8,11a-pentamethyl-1-(prop-1-en-2-yl)-2,3,3a,4,5,5a,5b,6,7,7a,8,11,11a,11b,12,13,13a,13b-octadecahydro-1H-cyclopenta[a]chrysene-3a-carboxamido)propanoyl)piperidine-4-carboxylic acid] | < 100
11 | C=C(C)[C@@H]1CC[C@]2(C(=O)NCCCN(CC)CCC(=O)O)CC[C@]3(C)[C@H](CC[C@@H]4[C@@]5(C)CC=C(c6ccc(C(=O)O)cc6)C(C)(C)[C@@H]5CC[C@]43C)[C@@H]12 [Example 99, 4-((1R,3aS,5aR,5bR,7aR,11aS,11bR,13aR,13bR)-3a-(3-((2-carboxyethyl)(ethyl)amino)propylcarbamoyl)-5a,5b,8,8,11a-pentamethyl-1-(prop-1-en-2-yl)-2,3,3a,4,5,5a,5b,6,7,7a,8,11,11a,11b,12,13,13a,13b-octadecahydro-1H-cyclopenta[a]chrysen-9-yl)benzoic acid] | < 100
12 | C=C(C)[C@@H]1CC[C@]2(C(=O)NCC(c3cccnc3)N(C)C)CC[C@]3(C)[C@H](CC[C@@H]4[C@@]5(C)CC=C(c6ccc(C(=O)O)cc6)C(C)(C)[C@@H]5CC[C@]43C)[C@@H]12 (stereo partly drawn) [Example 35, 4-((1R,3aS,5aR,5bR,7aR,11aS,11bR,13aR,13bR)-3a-(2-(dimethylamino)-2-(pyridin-3-yl)ethylcarbamoyl)-5a,5b,8,8,11a-pentamethyl-1-(prop-1-en-2-yl)-2,3,3a,4,5,5a,5b,6,7,7a,8,11,11a,11b,12,13,13a,13b-octadecahydro-1H-cyclopenta[a]chrysen-9-yl)benzoic acid] | < 100
13 | C=C(C)[C@@H]1CC[C@]2(C(=O)NS(=O)(=O)C3CC3)CC[C@]3(C)[C@H](CC[C@@H]4[C@@]5(C)CC=C(c6ccc(C(=O)O)cc6)C(C)(C)[C@@H]5CC[C@]43C)[C@@H]12 [Example 6, 4-((1R,3aS,5aR,5bR,7aR,11aS,11bR,13aR,13bR)-3a-(cyclopropylsulfonylcarbamoyl)-5a,5b,8,8,11a-pentamethyl-1-(prop-1-en-2-yl)-2,3,3a,4,5,5a,5b,6,7,7a,8,11,11a,11b,12,13,13a,13b-octadecahydro-1H-cyclopenta[a]chrysen-9-yl)benzoic acid] | < 100
14 | C=C(C)[C@@H]1CC[C@]2(C(=O)N(CCO)CCN(C)C)CC[C@]3(C)[C@H](CC[C@@H]4[C@@]5(C)CC=C(c6ccc(C(=O)O)cc6)C(C)(C)[C@@H]5CC[C@]43C)[C@@H]12 [Example 77, 4-((1R,3aS,5aR,5bR,7aR,11aS,11bR,13aR,13bR)-3a-((2-(dimethylamino)ethyl)(2-hydroxyethyl)carbamoyl)-5a,5b,8,8,11a-pentamethyl-1-(prop-1-en-2-yl)-2,3,3a,4,5,5a,5b,6,7,7a,8,11,11a,11b,12,13,13a,13b-octadecahydro-1H-cyclopenta[a]chrysen-9-yl)benzoic acid] | > 100
15 | C=C(C)[C@@H]1CC[C@]2(C(=O)NCCCn3ccnc3)CC[C@]3(C)[C@H](CC[C@@H]4[C@@]5(C)CC=C(c6ccc(C(=O)O)cc6)C(C)(C)[C@@H]5CC[C@]43C)[C@@H]12 [Example 86, 4-((1R,3aS,5aR,5bR,7aR,11aS,11bR,13aR,13bR)-3a-(3-(1H-imidazol-1-yl)propylcarbamoyl)-5a,5b,8,8,11a-pentamethyl-1-(prop-1-en-2-yl)-2,3,3a,4,5,5a,5b,6,7,7a,8,11,11a,11b,12,13,13a,13b-octadecahydro-1H-cyclopenta[a]chrysen-9-yl)benzoic acid] | < 100
16 | C=C(C)[C@@H]1CC[C@]2(C(=O)NCCN3CCS(=O)(=O)CC3)CC[C@]3(C)[C@H](CC[C@@H]4[C@@]5(C)CC=C(c6cc(F)c(C(=O)O)c(F)c6)C(C)(C)[C@@H]5CC[C@]43C)[C@@H]12 [Example 121, 4-((1R,3aS,5aR,5bR,7aR,11aS,11bR,13aR,13bR)-3a-((2-(1,1-dioxido-4-thiomorpholinyl)ethyl)carbamoyl)-1-isopropenyl-5a,5b,8,8,11a-pentamethyl-2,3,3a,4,5,5a,5b,6,7,7a,8,11,11a,11b,12,13,13a,13b-octadecahydro-1H-cyclopenta[a]chrysen-9-yl)-2,6-difluorobenzoic acid] | < 100
